Source: patent US20110217309A1, “BIOLOGICAL MARKERS PREDICTIVE OF ANTI-CANCER RESPONSE TO INSULIN-LIKE GROWTH FACTOR-1 RECEPTOR KINASE INHIBITORS” (priority 2010, published 2011)

Legend:
BT549 = assay: Cell Titer Glo proliferation assay, 88 cell line panel; assay type: cell-based, human; settings: BT549 breast cancer, PTEN mutant, 72 hours
Method: (§1) Proliferation Assay. […] The basis of the assay is a luminescent quantitation of ATP present in a cell culture plate well. In essence, the greater the number of viable cells in the well, the greater the level of ATP present. The assay utilizes a substrate that binds ATP to produce a luminescent signal, which can be read on a luminometer. Unless otherwise noted, the manufacturer's instructions were followed exactly. Briefly, on Day 1, cells were plated in 120 μl of 10% serum-containing growth media at a density of 4000 cells/well in a white polystyrene 96 well assay plate. […] After 72 h incubation with the inhibitor, the cells were assayed. Results were calculated as a fraction of the DMSO controlled cells.
(§2) This included cell lines representing ovarian cancer (A2780 and EFO-27), SCCHN (HSC-4), SCLC (NCI-H446), CRC (KM12), lymphoma (MC116), breast cancer (BT549 and HCC70), and prostate cancer (PC3).

HCC70 = assay: as above; assay type: cell-based, human; settings: HCC70 breast cancer, PTEN mutant, 72 hours
Method: as §1, §2

KM12 = assay: as above; assay type: cell-based, human; settings: KM12 CRC, PTEN mutant, 72 hours
Method: as §1, §2

HSC-4 = assay: as above; assay type: cell-based, human; settings: HSC-4 SCCHN, PTEN mutant, 72 hours
Method: as §1, §2

EFO-27 = assay: as above; assay type: cell-based, human; settings: EFO-27 ovarian cancer, PTEN mutant, 72 hours
Method: as §1, §2

PC3 = assay: as above; assay type: cell-based, human; settings: PC3 prostate cancer, PTEN mutant, 72 hours
Method: as §1, §2

NCI-H446 = assay: as above; assay type: cell-based, human; settings: NCI-H446 SCLC, PTEN mutant, 72 hours
Method: as §1, §2

A2780 = assay: as above; assay type: cell-based, human; settings: A2780 ovarian cancer, PTEN mutant, 72 hours
Method: as §1, §2

MC116 = assay: as above; assay type: cell-based, human; settings: MC116 lymphoma, PTEN mutant, 72 hours
Method: as §1, §2

OVK18 = assay: Cell Titer Glo proliferation assay; assay type: cell-based, human; settings: OVK18, wild type KRAS
Description: (§3) Cell Lines and Culture. Human cancer cell lines, were obtained from American Type Culture Collection (ATCC, Manassas, Va.), or the following additional indicated sources, and cultured in media as described. Tumor types are also indicated: H295R (adrenocortical carcinoma; ATCC), NCI-[…], NCI-[…], SW1573 (NSCLC; ATCC), […], BxPC3 (pancreatic; ATCC), OVCAR5 (ovarian; NCI), MDAH-2774 (ovarian; ATCC), Igrov1 (ovarian; NCI), GEO (colon; Roswell Park Cancer Institute (RPCC)), HT-29 (colon; ATCC), RKO (colon; ATCC), […], 8226 (myeloma; ATCC), H929 (myeloma; ATCC), U266 (myeloma; ATCC), SKES1 (Ewings sarcoma; ATCC), RDES (Ewings sarcoma; ATCC), RD (rhabdomyosarcoma; ATCC), DU4475 (breast; ATCC), SKNAS (neuroblastoma; ATCC), 2650 (nasal SCC; ATCC), OVCAR4 (ovarian; NCI), A673 (Ewings sarcoma; ATCC), BT474 (breast; ATCC), 1386 (oral SCC; MSKCC, NY), 1186 (SCCHN; MSKCC, NY), Colo205 (colon; ATCC), HCT-15 (colon; ATCC), Fadu (oral SCC; ATCC), SKBR3 (breast; ATCC), 1483 (HNSCC; MSKCC, NY), HSC-2 (HNSCC; RIKEN BioResource Center, Tsukuba, Ibaraki, 305-0074, Japan), SKOV-3 (ovarian; ATCC), OVCAR-3 (ovarian; NCI), OVCAR-8 (ovarian; NCI), CaOV3 (ovarian; ATCC). […] The cells were routinely screened for the presence of mycoplasma (MycoAlert, Cambrex Bio Science, Baltimore, Md.). For growth inhibition assays, cells were plated and allowed to proliferate for 24 hours. […] Cell viability was assayed using the Cell Titer-Glo reagent (Promega Corp., Madison, Wis.). Proliferation Assay. […] The basis of the assay is a luminescent quantitation of ATP present in a cell culture plate well. In essence, the greater the number of viable cells in the well, the greater the level of ATP present. The assay utilizes a substrate that binds ATP to produce a luminescent signal, which can be read on a luminometer. Unless otherwise noted, the manufacturer's instructions were followed exactly. Briefly, on Day 1, cells were plated in 120 μl of 10% serum-containing growth media at a density of 4000 cells/well in a white polystyrene 96 well assay plate. […] After 72 h incubation with the inhibitor, the cells were assayed. Results were calculated as a fraction of the DMSO controlled cells.

LS174T = assay: Cell Titer Glo proliferation assay; assay type: cell-based, human; settings: LS174T colon cancer, PIK3CA mutant
Description: as §3

T47D = assay: Cell Titer Glo proliferation assay; assay type: cell-based, human; settings: T47D breast cancer, PIK3CA mutant
Description: as §3

BT20 = assay: Cell Titer Glo proliferation assay; assay type: cell-based, human; settings: BT20 breast cancer, PIK3CA mutant
Description: as §3

MCF7 = assay: Cell Titer Glo proliferation assay; assay type: cell-based, human; settings: MCF7 breast cancer, PIK3CA mutant
Description: as §3

OVCAR4 = assay: Cell Titer Glo proliferation assay; assay type: cell-based, human; settings: OVCAR4, wild type KRAS
Description: as §3

HCC1954 = assay: Cell Titer Glo proliferation assay; assay type: cell-based, human; settings: HCC1954 breast cancer, PIK3CA mutant
Description: as §3

BxPC3 tumors = assay: Tumor xenograft study; settings: treatment in vivo for 10-14 days
FaDu tumors = assay: Tumor xenograft study; settings: treatment in vivo for 10-14 days
H460 tumors = assay: Tumor xenograft study; settings: treatment in vivo for 10-14 days

**Q.** Which results are given for `C[C@]1(O)C[C@@H](c2nc(-c3ccc4ccc(-c5ccccc5)nc4c3)c3c(N)nccn32)C1` [OSI-906, cis-3-[8-amino-1-(2-phenyl-quinolin-7-yl)-imidazo[1,5-a]pyrazin-3-yl]-1-methyl-cyclobutanol]?
**A.** sensitivity to OSI-906 (BT549): insensitive (insensitive (EC50>10 μM)); sensitivity to OSI-906 (HCC70): insensitive (insensitive (EC50>10 μM)); sensitivity to OSI-906 (KM12): insensitive (insensitive (EC50>10 μM)); sensitivity to OSI-906 (HSC-4): insensitive (insensitive (EC50>10 μM)); sensitivity to OSI-906 (EFO-27): insensitive (insensitive (EC50>10 μM)); sensitivity to OSI-906 (PC3): insensitive (insensitive (EC50>10 μM)); sensitivity to OSI-906 (NCI-H446): insensitive (insensitive (EC50>10 μM)); sensitivity to OSI-906 (A2780): insensitive (insensitive (EC50>10 μM)); sensitivity to OSI-906 (MC116): insensitive (insensitive (EC50>10 μM)); sensitivity to OSI-906 (OVK18): insensitive (insensitive (EC50>10 μM)); sensitivity to OSI-906 (LS174T): sensitive (sensitive (EC50<1 μM)); sensitivity to OSI-906 (T47D): insensitive (insensitive (EC50>10 μM)); sensitivity to OSI-906 (BT20): insensitive (insensitive (EC50>10 μM)); sensitivity to OSI-906 (MCF7): sensitive (sensitive (EC50<1 μM)); sensitivity to OSI-906 (OVCAR4): insensitive (insensitive (EC50>10 μM)); sensitivity to OSI-906 (HCC1954): insensitive (insensitive (EC50>10 μM)); % TGI (tumor growth inhibition) (BxPC3 tumors): 56%; % TGI (tumor growth inhibition) (FaDu tumors): < 30%; % TGI (tumor growth inhibition) (H460 tumors): < 30%
